Values of other authors in patent US20040115708A1, “Method of screening agents for the treatment and prevention of cancer and cachexia and the new use of specific agents for the treatment and prevention of cancer and cachexia” (priority 2002, published 2004).

Assays:
[1] = system: 8-Hydroxy-deoxyguanosine (8-OH-dG) in lung DNA
[2] = system: cancer in NNK treated animals; conditions: consumption of EGCG

| Molecule | 8-OH-dG (hydroxyl radical-caused DNA adduct) level ([1]; mice treated with NNK) | incidence of cancer [2] | levels of 8-OH-dG in lung DNA ([1]; consumption of EGCG, NNK treated animals) |
| --- | --- | --- | --- |
| CN(CCCC(=O)c1cccnc1)N=O [NNK, 4-(methyInitrosamino)-1-(3-pyridyl)-1-butanone] | elevated | – | – |
| (−)-epigallocatechin gallate | – | decreases | significantly lowers |
